PMC10864483, “Iron uptake pathway of Escherichia coli as an entry route for peptide nucleic acids conjugated with a siderophore mimic” (Frontiers in Microbiology, 2024)
Where a SMILES comes first, the peptide text is derived from it. [ ]: non-standard residue; d: D form. Orn(N5-OH,N5-Ac) = CC(=O)N(O)CCC[C@H](N)C(=O)O

Test: CD spectroscopy of siderophore-iron(III) complexes
Format: physicochemical
Settings: for Optimal Fe^3+ complex configuration: CD, phosphate buffer pH 7.0, optical isomer Λ or Δ
From the text: To elucidate the configuration of the siderophore-iron(III) complexes, we used circular dichroism (CD) spectroscopy where the minimum and maximum with Cotton effect are expected in the range of 350–490 nm ([Winkelmann, 1991]; [Matsumoto et al., 2001]). For the Λ configuration, the minimum band in the CD spectrum should be present before the maximum. Since the Δ configuration is a mirror image of the Λ configuration, the maximum band appears first ([Winkelmann, 1991]). In the presence of the Fe^3+ salt, the natural siderophores and SL solution changed from colorless to yellow after several minutes. This indicates the presence of the siderophore-ferric iron complex and further confirms the metal-binding properties of these compounds ([Winkelmann, 1991]). Based on this observation, during the CD experiments, for every siderophore, we adjusted the incubation time at the optimal concentration, ranging from 40 to 90 min (see Supplementary Figure S1).
Figure 4 CD spectra of the natural (ferrichrome and feroxamine) and synthetic (SL and SC) siderophores with Fe^3+ salt solution in phosphate buffer (pH = 7.0).
CD spectra were recorded in aqueous buffer solution (100 mM phosphate buffer, pH 7.0), in the presence of 4 mM iron(III) salt solution (FeCl3 in the phosphate buffer). To obtain optimal recording conditions, siderophore concentrations were varied in the range 0.24–1.0 mM with an incubation time of 20–90 min (Supplementary Figure S1). In all CD experiments, the siderophore-Fe^3+ molar ratio of 1:1 was maintained. The spectra were collected using the Biokine MOS-450/AF-CD spectrometer equipped with the Xe lamp using a 0.1 cm CD cell. The acquisition duration time was 2 s with a resolution of 1 nm. The measurements were performed in 100 mM phosphate buffer, pH 7.0, room temperature, and wavelength range 300–500 nm. The presented CD spectra were smoothed with the Savitzky–Golay method using GraphPad and are the averages of three scans. Each CD experiment was conducted twice to confirm the repeatability of the spectra.

[1] = siderophore with Fe^3+ salt 1:1, 100 mM phosphate buffer pH 7.0, room temperature, 300-500 nm, average of three scans

Molecule	Optimal Fe^3+ complex configuration	CD Wavelength Maximum [1] [nm]	CD Wavelength Minimum [1] [nm]	Ferric iron binding (CD and color change) (with Fe^3+ salt solution, phosphate buffer pH 7.0)
CC(=O)N([O-])CCCCCNC(=O)CCC(=O)N([O-])CCCCCNC(=O)CCC(=O)N([O-])CCCCCN.[Fe+3] [Feroxamine, feroxamine]	Λ and Δ			
CC(=O)N([O-])CCC[C@@H]1NC(=O)CNC(=O)CNC(=O)CNC(=O)[C@H](CCCN([O-])C(C)=O)NC(=O)[C@H](CCCN([O-])C(C)=O)NC1=O.[Fe+3] [Ferrichrome] (cyclo(GGG[Orn(N5-OH,N5-Ac)][Orn(N5-OH,N5-Ac)][Orn(N5-OH,N5-Ac)]))	Λ	456	360	
cyc(Asp-(Orn(Ac,OH))3-Gly-Lys(N3)) (head to tail) [SC, azido-Cyc(Asp-(Orn(Ac‚OH))3-GIy-Lys(N3)), cyclic hydroxamate siderophore mimic]		487		cannot bind ferric iron
